These results are taken from publication PMC9224473 (International Journal of Molecular Sciences, 2022).

Structures are written as SMILES. Converted amounts (≈) assume the structure as drawn.

One data set deals with P. aeruginosa 659. The experiment in a line: MIC, broth microdilution, clinical strain. The data set is classed as cell-based, Pseudomonas aeruginosa. The following applies: Pseudomonas aeruginosa, 659, read-out: MIC P. aeruginosa 659, 19 h, 35 °C.
The next data set concerns S. epidermidis KR 4243. The experiment in a line: MIC, broth microdilution, clinical strain. Format: cell-based, Staphylococcus epidermidis. To be noted: Staphylococcus epidermidis, KR4243, 19 h, 35 °C.
Another data set relates to S. aureus ATCC 6538. Put plainly: MIC, broth microdilution, standard strain. To be noted: Staphylococcus aureus, ATCC6538, 19 h, 35 °C. Format: cell-based, Staphylococcus aureus.
Another data set relates to E. coli 520. Put plainly: MIC, broth microdilution, clinical strain. Format: cell-based, Escherichia coli. The following applies: Escherichia coli, 520, 19 h, 35 °C.
For a further data set, the system named is P. aeruginosa ATCC 15442. Put plainly: MIC, broth microdilution, standard strain. The data set is classed as cell-based, Pseudomonas aeruginosa. The following applies: Pseudomonas aeruginosa, ATCC15442, 19 h, 35 °C.
Data set [1] relates to S. epidermidis ATCC 35984. The experiment in a line: MIC, broth microdilution, standard strain. The data set is classed as cell-based, Staphylococcus epidermidis. The following applies: Staphylococcus epidermidis, ATCC35984, 19 h, 35 °C.
The next data set has as its system S. pasteuri KR 4358. The experiment in a line: MIC, broth microdilution, clinical strain. The data set is classed as cell-based, Staphylococcus pasteuri. To be noted: Staphylococcus pasteuri, KR4358, 19 h, 35 °C.
The subject of the next data set is S. aureus NCTC 4163. Put plainly: MIC, broth microdilution, standard strain. Format: cell-based, Staphylococcus aureus. To be noted: Staphylococcus aureus, NCTC4163, 19 h, 35 °C.
A further data set concerns S. aureus T 5591. The experiment in a line: MIC, broth microdilution, clinical strain. Format: cell-based, Staphylococcus aureus. The following applies: Staphylococcus aureus, T5591, 19 h, 35 °C.
Data set [2] has as its system S. epidermidis ATCC 12228. The experiment in a line: MIC, broth microdilution, standard strain. Format: cell-based, Staphylococcus epidermidis. To be noted: Staphylococcus epidermidis, ATCC12228, 19 h, 35 °C.
A further data set has as its system E. coli 510. The experiment in a line: MIC, broth microdilution, clinical strain. Format: cell-based, Escherichia coli. To be noted: Escherichia coli, 510, 19 h, 35 °C.
Data set [3] concerns SW620 (human metastatic colon cancer). The experiment in a line: MTT cytotoxicity assay. The data set is classed as cell-based. The following applies: Homo sapiens, SW-620, 72 h, mean SD. In outline: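 SW620 lymph-node metastatic colon cancer cells (MEM, 10% FBS, 37 °C/5% CO2) treated with compounds; viability by MTT reduction, formazan dissolved in DMSO/isopropanol 1:1, read at 570 nm.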

The next data set deals with S. aureus T 5595. The experiment in a line: MIC, broth microdilution, clinical strain. Format: cell-based, Staphylococcus aureus. The following applies: Staphylococcus aureus, T5595, 19 h, 35 °C.
The subject of the next data set is E. coli ATCC 25922. Put plainly: MIC, broth microdilution, standard strain. Format: cell-based, Escherichia coli. The following applies: 35 °C; for MIC: Escherichia coli, ATCC25922, 19 h.
The test system of the next data set is E. coli 600. Put plainly: MIC, broth microdilution, clinical strain. The data set is classed as cell-based, Escherichia coli. The following applies: Escherichia coli, 600, 19 h, 35 °C.
A further data set relates to S. aureus ATCC 25923. Put plainly: MIC, broth microdilution, standard strain. The data set is classed as cell-based, Staphylococcus aureus. The following applies: Staphylococcus aureus, ATCC25923, 19 h, 35 °C.
A further data set has as its system S. aureus ATCC 29213. Put plainly: MIC, broth microdilution, standard strain. Format: cell-based, Staphylococcus aureus. To be noted: Staphylococcus aureus, ATCC29213, 19 h, 35 °C.
Data set [4] concerns HCT116 (human colon cancer). The experiment in a line: MTT cytotoxicity assay. To be noted: Homo sapiens, HCT-116, 72 h, mean SD. The data set is classed as cell-based. In outline: (§1)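 Cells were seeded at 1 × 10^4/well, adhered 24 h, then treated for 72 h at 37 °C/5% CO2 against an untreated control. Viability was read as MTT reduction (0.5 mg/mL, 4 h; formazan in DMSO/isopropanol, 570 nm) relative to control, three repeats, with IC50 estimated from the data.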

Data set [5] deals with HepG2 (human liver cancer). The experiment in a line: MTT cytotoxicity assay. The data set is classed as cell-based. The following applies: Homo sapiens, HepG2, 72 h, mean SD. The method, boiled down: as §1
Data set [6] deals with SW480 (human primary colon cancer). The experiment in a line: MTT cytotoxicity assay. The data set is classed as cell-based. To be noted: Homo sapiens, SW480, 72 h, mean SD. The method, boiled down: as §1
In data set [7] the test system is HaCaT (human immortal keratinocyte cell line). Put plainly: MTT cytotoxicity assay. The data set is classed as cell-based. To be noted: Homo sapiens, HaCaT, 72 h, mean SD, read-out: IC50 HaCaT (normal cells). In outline: as §1
For data set [8], the system named is standard Gram-positive Staphylococci. The experiment in a line: MIC, panel of standard Gram-positive strains. Format: cell-based, Staphylococcus. The following applies: range over all standard Gram-positive Staphylococci.
Data set [9] concerns standard bacteria strains. Put plainly: Antimicrobial screening (MIC), standard bacteria strains. The data set is classed as cell-based. The following applies: MIC evaluation. The protocol:
Obtained compounds were examined for antimicrobial potency. Firstly, all of them were screened for their minimal inhibitory concentrations (MICs). A suitable set of bacteria was used, including representative standard Gram-positive and Gram-negative rods (Table 2 and Table 3). For clarity, results are presented for menthol and thymol derivatives separately.
The antimicrobial assays were conducted using reference strains of bacteria derived from international microbe collections: American Type Culture Collection (ATCC) and National Collection of Type Culture (NCTC). The following standard strains of bacteria were used: Gram-positive—Staphylococcus aureus NCTC 4163, Staphylococcus aureus ATCC 25923, Staphylococcus aureus ATCC 6538, Staphylococcus aureus ATCC 29213, Staphylococcus epidermidis ATCC 12228, Staphylococcus epidermidis ATCC 35984, Gram-negative: Escherichia coli ATCC 25922, Pseudomonas aeruginosa ATCC 15442. […] Antimicrobial activity was examined by the Minimal Inhibitory Concentration (MIC) method under standard procedures provided by CLSI with some modifications. MIC was determined by the two-fold serial broth microdilution method in 96-well microtitration plates using Mueller–Hinton II broth medium (Becton Dickinson, Franklin Lakes, NJ, USA). The final inoculum of all studied bacteria was 10^6 CFU/mL (colony forming unit per millilitre). The stock solution of tested compounds was prepared in dimethyl sulfoxide (DMSO) and diluted to a maximum of 1% of solvent content with a sterile medium.

For the molecule `CC(C)[C@@H]1CC[C@@H](C)C[C@H]1OC(=O)CCCCCN1CCN(c2cc3c(cc2F)c(=O)c(C(=O)O)cn3C2CC2)CC1` [Compound 6, 1-cyclopropyl-6-fluoro-7-{4-[6-((1R,2S,5R)-2-isopropyl-5-methylcyclohexyloxy)-6-oxohexyl]piperazin-1-yl}-4-oxo-1,4-dihydroquinoline-3-carboxylic acid], the melting point is 210.8 to 212.4 °C. The MIC with P. aeruginosa 659 was over 256 µg/mL. The same molecule registered an MIC against S. epidermidis KR 4243 of 8 µg/mL (≈ 13.7 µM). This molecule also showed a minimal inhibitory concentration (MIC) against S. aureus ATCC 6538 of 4 µg/mL (≈ 6.85 µM). In the data set with E. coli 520, this molecule registered a minimum inhibitory concentration (MIC) of 64 µg/mL (≈ 110 µM). For the same molecule, the minimal inhibitory concentration (MIC) in the data set on P. aeruginosa ATCC 15442 was 256 µg/mL (≈ 439 µM). In addition, the minimal inhibitory concentration (MIC) in data set [1] was determined as 8 µg/mL (≈ 13.7 µM). The lowest concentration to inhibit growth in the data set on S. pasteuri KR 4358 (MIC) was 8 µg/mL (≈ 13.7 µM). Moreover, in the data set on S. aureus NCTC 4163, the MIC is 4 µg/mL (≈ 6.85 µM). Moreover, the minimum inhibitory concentration (MIC) with S. aureus T 5591 stood at 8 µg/mL (≈ 13.7 µM). In [2], this molecule came in with a minimum inhibitory concentration (MIC) of 8 µg/mL (≈ 13.7 µM). This molecule also returned a minimal inhibitory concentration (MIC) in the data set on E. coli 510 of over 256 µg/mL. Also, in [3], the half-inhibitory concentration (IC50) worked out at 38.1 ± 2.5 µM. 8 µg/mL (≈ 13.7 µM) was the least that counted as inhibitory against S. aureus T 5595 (MIC). For the same molecule, the MIC in the data set on E. coli ATCC 25922 was 32 µg/mL (≈ 54.8 µM). In the data set on E. coli 600, this molecule displayed an MIC of 64 µg/mL (≈ 110 µM). The molecule also registered an MIC with S. aureus ATCC 25923 of 8 µg/mL (≈ 13.7 µM). This molecule registered a minimal inhibitory concentration (MIC) against S. aureus ATCC 29213 of 8 µg/mL (≈ 13.7 µM). In data set [4], this molecule returned a half-inhibitory concentration (IC50) of 29.5 ± 2.1 µM. This molecule also had a concentration for half-maximal inhibition (IC50) in data set [5] of 53.7 ± 0.9 µM. In [6], the IC50 worked out at 46.2 ± 1.8 µM. Also, the 50% inhibitory concentration (IC50) in [7] is over 100 µM.

Turning to `Cc1ccc(C(C)C)c(OC(=O)CCCN2CCN(c3cc4c(cc3F)c(=O)c(C(=O)O)cn4C3CC3)CC2)c1` [Compound 12, 1-cyclopropyl-6-fluoro-7-{4-[4-(2-isopropyl-5-methylphenoxy)-4-oxobutyl]piperazin-1-yl}-4-oxo-1,4-dihydroquinoline-3-carboxylic acid], the MIC with P. aeruginosa 659 came to 64 µg/mL (≈ 116 µM); in the data set with S. epidermidis KR 4243, 2 µg/mL (≈ 3.64 µM); in the data set with S. aureus ATCC 6538, 1.6 µg/mL (≈ 2.91 µM); with E. coli 520, 8 µg/mL (≈ 14.6 µM); in the data set on P. aeruginosa ATCC 15442, 12.8 µg/mL (≈ 23.3 µM); in data set [1], 0.8 µg/mL (≈ 1.46 µM). The MIC against S. pasteuri KR 4358 turned out to be 1 µg/mL (≈ 1.82 µM); against S. aureus NCTC 4163 it was 1.6 µg/mL (≈ 2.91 µM); against S. aureus T 5591 it was 1 µg/mL (≈ 1.82 µM); in data set [2], 0.8 µg/mL (≈ 1.46 µM); with E. coli 510, 128 µg/mL (≈ 233 µM); in the data set on S. aureus T 5595, 4 µg/mL (≈ 7.28 µM). The MIC is 2 to 4 µg/mL (≈ 3.64 to 7.28 µM) in the data set on E. coli ATCC 25922, 4 µg/mL (≈ 7.28 µM) against E. coli 600, 0.8 µg/mL (≈ 1.46 µM) in the data set on S. aureus ATCC 25923 and 0.8 µg/mL (≈ 1.46 µM) against S. aureus ATCC 29213. In addition, in data set [8], the “MIC range against standard Gram-positive strains” value was in the range of 0.8 to 1.6 µg/mL. In addition, the half-maximal inhibitory concentration (IC50) was 61.8 ± 0.1 µM in data set [3]; 28.6 ± 0.1 µM in [4]; 43.4 ± 3.1 µM in data set [5]; 33.7 ± 3.5 µM in [6]; 59.1 ± 3.1 µM in data set [7]. Moreover, the “MIC E. coli ATCC 25922” value in the data set with E. coli ATCC 25922 (19 h) came out at 3.2 µg/mL (≈ 5.82 µM).

As to `Cc1ccc(C(C)C)c(OC(=O)CCCCCOC(=O)c2cn(C3CC3)c3cc(N4CCN(CCCCCC(=O)Oc5cc(C)ccc5C(C)C)CC4)c(F)cc3c2=O)c1` [Compound 16], the MIC was 64 µg/mL (≈ 77.7 µM) with S. aureus ATCC 6538; over 256 µg/mL against P. aeruginosa ATCC 15442; 128 µg/mL (≈ 155 µM) in [1]; 128 µg/mL (≈ 155 µM) in the data set with S. aureus NCTC 4163; 128 µg/mL (≈ 155 µM) in data set [2]; over 256 µg/mL against E. coli ATCC 25922. For the same molecule, the values for the MIC in the data set on S. aureus ATCC 25923 and in the data set with S. aureus ATCC 29213 were 128 µg/mL (≈ 155 µM) and 256 µg/mL (≈ 311 µM), respectively. Besides, in data set [9], the “Antimicrobial activity (in words)” value is “rather inactive”. Also, the half-inhibitory concentration (IC50) in data set [3] was 49.6 ± 7 µM; in data set [4] it was 30.5 ± 2.3 µM; in [5], 41.8 ± 2.5 µM; in [6] it was 29.5 ± 1.9 µM; in data set [7] it was 64.9 ± 5.1 µM.
